Measurements reported in PubChem BioAssay (NCI).
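These data come from cells grown in 96-well plates and exposed to compound for 48 hours at five concentrations. GI50: concentration for 50% inhibition of growth. TGI: total growth inhibition.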

Legend:
Assay in all cases: DTP human tumour cell line panel, 48 h
786-0 renal = tested on: 786-0 renal
A498 renal = tested on: A498 renal
ACHN renal = tested on: ACHN renal
BT-549 breast = tested on: BT-549 breast
CAKI-1 renal = tested on: CAKI-1 renal
COLO 205 colon = tested on: COLO 205 colon
DU-145 prostate = tested on: DU-145 prostate
HCC-2998 colon = tested on: HCC-2998 colon
HCT-116 colon = tested on: HCT-116 colon
HCT-15 colon = tested on: HCT-15 colon
HL-60(TB) leukemia = tested on: HL-60(TB) leukemia
HOP-62 NSCLC = tested on: HOP-62 NSCLC
HOP-92 NSCLC = tested on: HOP-92 NSCLC
HS 578T breast = tested on: HS 578T breast
HT29 colon = tested on: HT29 colon
IGROV1 ovarian = tested on: IGROV1 ovarian
K-562 leukemia = tested on: K-562 leukemia
KM12 colon = tested on: KM12 colon
LOX IMVI melanoma = tested on: LOX IMVI melanoma
M14 melanoma = tested on: M14 melanoma
MALME-3M melanoma = tested on: MALME-3M melanoma
MCF7 breast = tested on: MCF7 breast
MDA-MB-231 breast = tested on: MDA-MB-231 breast
MDA-MB-435 = tested on: MDA-MB-435
NCI-H23 lung = tested on: NCI-H23 lung
NCI-H460 lung = tested on: NCI-H460 lung

In the case of `NCCCOc1cc2ccccc2cc1C(=O)NCCOc1nc2ccccc2cc1C(=O)Nc1ccc(Cl)cc1O`, the GI50 (786-0 renal) is reported as 1170 nM, the TGI (786-0 renal) is reported as 2490 nM and the GI50 (A498 renal) is reported as 342 nM. The TGI (A498 renal) was 3450 nM, the GI50 (ACHN renal) was 1070 nM and the TGI (ACHN renal) was 2300 nM. It also gave a GI50 (BT-549 breast) of 1370 nM, a TGI (BT-549 breast) of 3030 nM and a GI50 (CAKI-1 renal) of 1330 nM. The TGI (CAKI-1 renal) was 2930 nM, the GI50 (COLO 205 colon) was 1100 nM and the TGI (COLO 205 colon) was 2380 nM. For the same compound, the GI50 (DU-145 prostate) was 1340 nM, the TGI (DU-145 prostate) was 2670 nM and the GI50 (HCC-2998 colon) was 1670 nM. For the same compound, the TGI (HCC-2998 colon) was 3180 nM, the GI50 (HCT-116 colon) was 252 nM and the TGI (HCT-116 colon) was 2170 nM. It also gave a GI50 (HCT-15 colon) of 818 nM, a TGI (HCT-15 colon) of 2110 nM and a GI50 (HL-60(TB) leukemia) of 621 nM. For the same compound, the TGI (HL-60(TB) leukemia) was 2370 nM, the GI50 (HOP-62 NSCLC) was 721 nM and the TGI (HOP-62 NSCLC) was 2370 nM. For the same compound, the GI50 (HOP-92 NSCLC) was 126 nM, the TGI (HOP-92 NSCLC) was 1320 nM and the GI50 (HS 578T breast) was 1630 nM. It also gave a TGI (HS 578T breast) of 3890 nM, a GI50 (HT29 colon) of 1500 nM and a TGI (HT29 colon) of 3120 nM. The GI50 (IGROV1 ovarian) was 1220 nM, the TGI (IGROV1 ovarian) was 2800 nM and the GI50 (K-562 leukemia) was 544 nM. The TGI (K-562 leukemia) was 3300 nM, the GI50 (KM12 colon) was 1050 nM and the TGI (KM12 colon) was 2400 nM. The GI50 (LOX IMVI melanoma) was 1070 nM, the TGI (LOX IMVI melanoma) was 2390 nM and the GI50 (M14 melanoma) was 1310 nM. The TGI (M14 melanoma) was 2750 nM, the GI50 (MALME-3M melanoma) was 1280 nM and the TGI (MALME-3M melanoma) was 2790 nM. It also gave a GI50 (MCF7 breast) of 295 nM, a TGI (MCF7 breast) of 1920 nM and a GI50 (MDA-MB-231 breast) of 1170 nM. It also gave a TGI (MDA-MB-231 breast) of 2460 nM, a GI50 (MDA-MB-435) of 1000 nM and a TGI (MDA-MB-435) of 2370 nM. The GI50 (NCI-H23 lung) was 941 nM, the TGI (NCI-H23 lung) was 2410 nM and the GI50 (NCI-H460 lung) was 482 nM.
